From patent US11986493B2 (University of Pittsburgh—Of the Commonwealth System of …, priority 2013, dated 2024)

System: subjects with pulmonary hypertension (WHO group I PAH, WHO group III PH)
Experiment: Right heart catheterization: right heart/pulmonary artery hemodynamics, thermodilution cardiac output, PVR and SVR after inhaled NO and nebulized nitrite
Format: in vivo, human
Method: A total of 6 subjects with a confirmed diagnosis of pulmonary hypertension and meeting all inclusion/exclusion criteria were enrolled in the study which entailed a single right heart catheterization. The study population consisted of subjects with WHO group I PAH (n=3) and subjects with WHO group III PH (n=3) which received the dose escalation paradigm:
During the study right heart/pulmonary artery hemodynamics were measured as well as noninvasive systemic blood pressure monitoring and simultaneous RV echocardiography. Subjects were tested for the changes in pulmonary vascular resistance (PVR) measured by right heart catheterization and using thermodilution cardiac output measurement at time zero, at times 15, 30 and 45 minutes after completion of each nebulization dose.
Following right heart catheterization, the patient was stabilized for 20 minutes. Baseline blood collections and hemodynamic measurements were performed, followed by treatment with 40 ppm inhaled NO gas for […] with repeat hemodynamic measurements performed.
After stopping inhaled NO gas, a single dose of sildenafil was given if patients were on background sildenafil therapy at previously prescribed doses. 45-minutes after sildenafil dose baseline hemodynamics were performed.
Subjects were monitored carefully during and after the study treatment.
The study was conducted at the 3rd FL Catheterization Laboratory at Presbyterian Hospital of the University of Pittsburgh Medical Center (UPMC). Baseline vasoreactivity was recorded after Inhaled NO at 40 ppm for […]. […] Subjects were instructed to breathe as calmly, and deeply as possible until no more mist was formed in the nebulizer chamber. Subjects were also instructed to hold their breath for approximately 10 seconds after inhalation to allow the study drug to reach deep into the lungs.

[1] = Patient 4, nitrite 45 mg inhaled, 15 min
[2] = Patient 4, nitrite 45 mg inhaled, 30 min
[3] = Patient 4, nitrite 45 mg inhaled, 45 min
[4] = Patient 4, nitrite 45 mg inhaled, 60 min
[5] = Patient 4, nitrite 90 mg inhaled, 15 min
[6] = Patient 4, nitrite 90 mg inhaled, 30 min
[7] = Patient 4, nitrite 90 mg inhaled, 45 min
[8] = Patient 4, nitrite 90 mg inhaled, 60 min
[9] = Patient 5, nitrite 45 mg inhaled, 15 min
[10] = Patient 5, nitrite 45 mg inhaled, 30 min
[11] = Patient 5, nitrite 45 mg inhaled, 45 min
[12] = Patient 5, nitrite 45 mg inhaled, 60 min

For `O=NO` [nitrite, sodium nitrite], the mPAP (Patient 3, nitrite 90 mg inhaled, 60 min) was 37.34, the CI [1] was 3.07 and the CO [1] was 5.37. For the same molecule, the PAD [1] was 26, the PAS [1] was 69 and the PCWP [1] was 7. It also gave a PVR [1] of 6.21, a PVR/SVR [1] of 0.36 and an RA [1] of 3. For the same molecule, the RVD [1] was 3, the RVS [1] was 74 and the SVR [1] was 17.01. The TPR [1] was 7.51, the mPAP [1] was 40.34 and the CI [2] was 2.69. The CO [2] was 4.7, the PAD [2] was 24 and the PAS [2] was 70. The PCWP [2] was 8, the PVR [2] was 6.67 and the PVR/SVR [2] was 0.34. It also gave an RA [2] of 4, an RVD [2] of 3 and an RVS [2] of 67. It also gave an SVR [2] of 19.58, a TPR [2] of 8.37 and a mPAP [2] of 39.34. It also gave a CI [3] of 2.71, a CO [3] of 4.75 and a PAD [3] of 23. It also gave a PAS [3] of 68, a PCWP [3] of 9 and a PVR [3] of 6.11. For the same molecule, the PVR/SVR [3] was 0.32, the RA [3] was 2 and the RVD [3] was 2. The RVS [3] was 68, the SVR [3] was 18.95 and the TPR [3] was 8.00. For the same molecule, the mPAP [3] was 38.01, the CI [4] was 3.03 and the CO [4] was 5.31. It also gave a PAD [4] of 21, a PAS [4] of 69 and a PCWP [4] of 8. It also gave a PVR [4] of 5.46, a PVR/SVR [4] of 0.33 and an RA [4] of 3. It also gave an RVD [4] of 2, an RVS [4] of 68 and an SVR [4] of 16.57. For the same molecule, the TPR [4] was 6.97, the mPAP [4] was 37.01 and the CI [5] was 3.08. It also gave a CO [5] of 5.39, a PAD [5] of 23 and a PAS [5] of 71. It also gave a PCWP [5] of 8, a PVR [5] of 5.75 and a PVR/SVR [5] of 0.39. It also gave an RA [5] of 3, an RVD [5] of 3 and an RVS [5] of 62. For the same molecule, the SVR [5] was 14.78, the TPR [5] was 7.24 and the mPAP [5] was 39.01. The CI [6] was 3.03, the CO [6] was 5.3 and the PAD [6] was 22. The PAS [6] was 70, the PCWP [6] was 7 and the PVR [6] was 5.85. The PVR/SVR [6] was 0.37, the RA [6] was 4 and the RVD [6] was 3. For the same molecule, the RVS [6] was 70, the SVR [6] was 15.73 and the TPR [6] was 7.17. It also gave a mPAP [6] of 38.01, a CI [7] of 3.08 and a CO [7] of 5.39. It also gave a PAD [7] of 23, a PAS [7] of 69 and a PCWP [7] of 7. The PVR [7] was 5.81, the PVR/SVR [7] was 0.39 and the RA [7] was 2. The RVD [7] was 2, the RVS [7] was 74 and the SVR [7] was 14.91. The TPR [7] was 7.11, the mPAP [7] was 38.34 and the CI [8] was 3.03. It also gave a CO [8] of 5.3, a PAD [8] of 21 and a PAS [8] of 67. For the same molecule, the PCWP [8] was 8, the PVR [8] was 5.35 and the PVR/SVR [8] was 0.33. The RA [8] was 2, the RVD [8] was 3 and the RVS [8] was 70. The SVR [8] was 16.04, the TPR [8] was 6.86 and the mPAP [8] was 36.34. The CI [9] was 2.80, the CO [9] was 4.95 and the PAD [9] was 16. The PAS [9] was 66, the PCWP [9] was 3 and the PVR [9] was 5.99. It also gave a PVR/SVR [9] of 0.48, an RA [9] of 1 and an RVD [9] of 1. For the same molecule, the RVS [9] was 68, the SVR [9] was 12.53 and the TPR [9] was 6.60. The mPAP [9] was 32.67, the CI [10] was 2.50 and the CO [10] was 4.43. For the same molecule, the PAD [10] was 15, the PAS [10] was 66 and the PCWP [10] was 3. The PVR [10] was 6.55, the PVR/SVR [10] was 0.44 and the RA [10] was 1. For the same molecule, the SVR [10] was 14.75, the TPR [10] was 7.22 and the mPAP [10] was 32.00. For the same molecule, the CI [11] was 2.75, the CO [11] was 4.86 and the PA sat [11] was 60. It also gave a PAD [11] of 14, a PAS [11] of 67 and a PCWP [11] of 4. The PVR [11] was 5.69, the PVR/SVR [11] was 0.42 and the RA [11] was 1. For the same molecule, the SVR [11] was 13.65, the TPR [11] was 6.52 and the mPAP [11] was 31.67. It also gave a CI [12] of 2.52, a CO [12] of 4.46 and a PAD [12] of 17. The PAS [12] was 74.
